Test results published in US20100104567A1, “PHARMACEUTICAL COMPOSITION” (KYOWA HAKKO KIRIN CO., LTD., priority 2007, published 2010).
Where two headings read alike, the source gives them in different places.

Experiments:
[1] = system: human renal cancer Caki-1 cells; settings: day 10; BALB/cAJcl-nu mice, s.c. Caki-1 tumor pieces; Compound 9 25 mg/kg oral twice a day x 5 days; erlotinib 50 mg/kg oral once a day x 5 days
[2] = system: human colon cancer Colo205 cells; assay: Antitumor effect of Flt-3 inhibitor and irinotecan in mouse models transplanted with Colo205 cells; assay type: in vivo; settings: day 11; BALB/cAJcl-nu mice, s.c. Colo205; Compound 9 20 mg/kg oral twice a day x 5 days; irinotecan 67 mg/kg i.v. days 0 and 3
Experimental: [formula] […] Irinotecan was suspended in physiological saline at a concentration of 6.7 mg/mL. […] A. […] B. […] C. Irinotecan alone group: 67 mg/kg (once a day/days zero and 3 after the start of administration) D.

[3] = system: human acute myeloid leukemia HL-60 cells; assay: Antitumor effect of Flt-3 inhibitor and daunorubicin in mouse models transplanted with HL-60 cells; assay type: in vivo; settings: day 17; scid mice, s.c. HL-60; Compound 9 20 mg/kg oral twice a day x 14 days; daunorubicin 2.5 mg/kg i.v. once a day x 3 days
Experimental: B. Compound 9 alone group: 20 mg/kg (twice a day×14 days)
C. Daunorubicin alone group: 2.5 mg/kg (once a day×3 days)
D. Compound 9+daunorubicin: 20 mg/kg (twice a day×14 days) for Compound 9, and 2.5 mg/kg (once a day×3 days) for daunorubicin

[4] = system: human acute myeloid leukemia MOLM-13 cells; assay: Antitumor effect of Flt-3 inhibitor and cytarabine in mouse models transplanted with MOLM-13 cells; settings: day 14; scid mice, s.c. MOLM-13; Compound 9 5 mg/kg oral twice a day x 14 days; cytarabine 75 mg/kg i.v. once a day x 5 days
[5] = system: human renal cancer Caki-1 cells; assay: Antitumor effect of Flt-3 inhibitor and sunitinib in mouse models transplanted with Caki-1 cells; settings: day 18; BALB/cAJcl-nu mice, s.c. Caki-1 tumor pieces; Compound 9 50 mg/kg oral twice a day days 0-4; sunitinib 40 mg/kg oral twice a day x 5 days (alone days 0-4, combined days 7-11)
[6] = system: human acute myeloid leukemia MOLM-13 cells; assay: Antitumor effect of Flt-3 inhibitor and Hsp90 inhibitor in mouse models transplanted with MOLM-13 cells; assay type: in vivo; settings: day 7; scid mice, s.c. MOLM-13; Compound P 12.5 mg/kg i.v. twice a day x 5 days; Compound 9 10 mg/kg oral twice a day x 5 days
[7] = system: human pancreatic cancer MIA-Paca-2 cells; assay: Antitumor effect of Flt-3 inhibitor and gemcitabine in mouse models transplanted with MIA-Paca-2 cells; assay type: in vivo; settings: day 24; scid mice, s.c. MIA-PaCa-2; Compound 9 25 mg/kg oral twice a day x 5 days; gemcitabine 60 mg/kg i.v. days 0, 3, 7, 10
Experimental: [formula] […] A. […] B. […] C. Gemcitabine alone group: 60 mg/kg (once a day/days zero, 3, 7, and 10 after the start of administration) D.

[8] = system: human pancreatic cancer MIA-Paca-2 cells; assay: Antitumor effect of Flt-3 inhibitor and cetuximab in mouse models transplanted with MIA-Paca-2 cells; assay type: in vivo; settings: day 24; scid mice, s.c. MIA-PaCa-2; Compound 9 50 mg/kg oral twice a day x 5 days; cetuximab 2.5 mg/head i.v. days 0, 3, 6, 9, 12
[9] = system: human colon cancer Colo205 cells; assay: Antitumor effect of Flt-3 inhibitor and 5-fluorouracil (5-FU) in mouse models transplanted with Colo205 cells; assay type: in vivo; settings: day 7; BALB/cAJcl-nu mice, s.c. Colo205; Compound 9 20 mg/kg oral twice a day x 5 days; 5-FU 10 mg/kg i.v. once a day x 5 days

In the case of C#Cc1cccc(Nc2ncnc3cc(OCCOC)c(OCCOC)cc23)c1 [Erlotinib, reference compound], the “T/C (V/V0 of group divided by V/V0 of negative control group)” value [1] is reported as 0.89.

For CCc1c2c(nc3ccc(OC(=O)N4CCC(N5CCCCC5)CC4)cc13)-c1cc3c(c(=O)n1C2)COC(=O)[C@]3(O)CC [Irinotecan, reference compound], the “T/C (V/V0 of group divided by V/V0 of negative control group)” value [2] was 0.65.

In the case of COc1cccc2c1C(=O)c1c(O)c3c(c(O)c1C2=O)C[C@@](O)(C(C)=O)C[C@@H]3O[C@H]1C[C@H](N)[C@H](O)[C@H](C)O1 [Daunorubicin, reference compound], the “T/C (V/V0 of group divided by V/V0 of negative control group)” value [3] is reported as 0.61.

With Nc1ccn([C@@H]2O[C@H](CO)[C@@H](O)[C@@H]2O)c(=O)n1 [Cytarabine, reference compound] the “T/C (V/V0 of group divided by V/V0 of negative control group)” value [4] was 0.62.

For CCN(CC)CCNC(=O)c1c(C)[nH]c(/C=C2\C(=O)Nc3ccc(F)cc32)c1C [Sunitinib, reference compound], the “T/C (V/V0 of group divided by V/V0 of negative control group)” value [5] was 0.62.

For CCc1c(O)cc(O)c(C(=O)c2ccc(OCCN3CCOCC3)c(OC)c2)c1CC(=O)N(CCOC)CCOC [Compound P, 2-{2-ethyl-3,5-dihydroxy-6-[3-methoxy-4-(2-morpholinoethoxy)benzoyl]pheny1]-N,N-bis(2-methoxyethyl)acetamide, reference compound], the “T/C (V/V0 of group divided by V/V0 of negative control group)” value [6] was 0.53.

With Nc1ccn([C@@H]2O[C@H](CO)[C@@H](O)C2(F)F)c(=O)n1 [Gemcitabine, reference compound] the “T/C (V/V0 of group divided by V/V0 of negative control group)” value [7] was 0.57.

With O=C(c1ccc(/C=C/c2n[nH]c3ccccc23)cc1)N1CCNCC1 [Compound 9] the “T/C (V/V0 of group divided by V/V0 of negative control group)” value [8] was 0.59, the “T/C (V/V0 of group divided by V/V0 of negative control group)” value [7] was 0.84 and the “T/C (V/V0 of group divided by V/V0 of negative control group)” value [9] was 0.68. For the same compound, the “T/C (V/V0 of group divided by V/V0 of negative control group)” value [2] was 0.75, the “T/C (V/V0 of group divided by V/V0 of negative control group)” value [6] was 0.29 and the “T/C (V/V0 of group divided by V/V0 of negative control group)” value [3] was 0.42. The “T/C (V/V0 of group divided by V/V0 of negative control group)” value [1] was 0.71, the “T/C (V/V0 of group divided by V/V0 of negative control group)” value [5] was 0.50 and the “T/C (V/V0 of group divided by V/V0 of negative control group)” value [4] was 0.29.

O=c1[nH]cc(F)c(=O)[nH]1 [Compound 5-FU, 5-fluorouracil, reference compound] was tested, and the “T/C (V/V0 of group divided by V/V0 of negative control group)” value [9] was 0.81.
